Values joined by “and” are separate entries in the source; they are usually repeats but may differ in a detail not shown here. Equal values may be shown once.
System: NCI-H1876 complex spheroid viability
Assay: Anticancer human tumor NCI-H1876 cell line growth inhibition [LSD1];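 note: spheroids exposed to compounds for one week before readout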;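 for viability, T/C: 100% = DMSO vehicle-treated spheroids so lower means fewer viable cells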
Conditions: for viability, T/C: stronger effect = lower value
Procedure, shortened: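 Multicellular complex spheroids of tumor cells with human endothelial cells (HUVEC) and mesenchymal stem cells; the LSD1 inhibitor iadademstat was combined with standard-of-care or investigational agents. Top concentration at or near clinical Cmax, half-log dilutions; final DMSO ≤0.25%.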

[1] = curve of first compound, second compound 0.1 µM
[2] = curve of first compound, second compound 0.316 µM
[3] = curve of first compound, second compound 1 µM
[4] = curve of first compound, second compound 3.16 µM
[5] = curve of first compound, second compound 10 µM
[6] = second compound 0.1 µM, first compound 0.00316 µM
[7] = second compound 0.1 µM, first compound 0.01 µM
[8] = second compound 0.1 µM, first compound 0.0316 µM
[9] = second compound 0.1 µM, first compound 0.1 µM
[10] = second compound 0.1 µM, first compound 0.316 µM
[11] = second compound 0.1 µM, first compound 1 µM
[12] = second compound 0.316 µM, first compound 0.00316 µM
[13] = second compound 0.316 µM, first compound 0.01 µM
[14] = second compound 0.316 µM, first compound 0.0316 µM
[15] = second compound 0.316 µM, first compound 0.1 µM
[16] = second compound 0.316 µM, first compound 0.316 µM
[17] = second compound 0.316 µM, first compound 1 µM
[18] = second compound 1 µM, first compound 0.00316 µM
[19] = second compound 1 µM, first compound 0.01 µM
[20] = second compound 1 µM, first compound 0.0316 µM
[21] = second compound 1 µM, first compound 0.1 µM
[22] = second compound 1 µM, first compound 0.316 µM
[23] = second compound 1 µM, first compound 1 µM
[24] = second compound 3.16 µM, first compound 0.00316 µM
[25] = second compound 3.16 µM, first compound 0.01 µM
[26] = second compound 3.16 µM, first compound 0.0316 µM
[27] = second compound 3.16 µM, first compound 0.1 µM
[28] = second compound 3.16 µM, first compound 0.316 µM
[29] = second compound 3.16 µM, first compound 1 µM
[30] = second compound 10 µM, first compound 0.00316 µM
[31] = second compound 10 µM, first compound 0.01 µM
[32] = second compound 10 µM, first compound 0.0316 µM
[33] = second compound 10 µM, first compound 0.1 µM
[34] = second compound 10 µM, first compound 0.316 µM
[35] = second compound 10 µM, first compound 1 µM

Compound	IC50 [1] [µM]	IC50 [2] [µM]	IC50 [3] [µM]	IC50 [4] [µM]	IC50 [5] [µM]	viability, T/C [6] [%]	viability, T/C [7] [%]	viability, T/C [8] [%]	viability, T/C [9] [%]	viability, T/C [12] [%]	viability, T/C [13] [%]	viability, T/C [14] [%]	viability, T/C [15] [%]	viability, T/C [18] [%]	viability, T/C [19] [%]	viability, T/C [20] [%]	viability, T/C [21] [%]	viability, T/C [24] [%]	viability, T/C [25] [%]	viability, T/C [26] [%]	also measured
CC1COCCN1c1cc(-c2ccnn2C)c2ccnc(-c3ccn[nH]3)c2n1 (configuration not stated) + NC1CCC(NC2CC2c2ccccc2)CC1	0.0199	0.0219	0.0191	0.0187	0.00968	86.9	70.5	34.9	25.3	83.5	79.7	35.7	28.7	80.5	68.3	35.9	15.2	77.4	66.8	36	viability, T/C [10]: 23.4%; viability, T/C [11]: 12.1%; viability, T/C [16]: 11%; viability, T/C [17]: 21.8%; viability, T/C [22]: 11.6%; viability, T/C [23]: 12.7%; viability, T/C [27]: 16%; viability, T/C [28]: 12.4%; viability, T/C [29]: 12.7%; viability, T/C [30]: 64.5%; viability, T/C [31]: 50.2%; viability, T/C [32]: 31.1%; viability, T/C [33]: 19.9%; viability, T/C [34]: 16.7%; viability, T/C [35]: 11.4%
CC(C)CC(NC(=O)C(Cc1ccccc1)NC(=O)c1cnccn1)B(O)O (configuration not stated) + NC1CCC(NC2CC2c2ccccc2)CC1	0.000602	0.000563	0.000555	0.000449	0.000485	31.7	14.5	0.17	3.63	13.6	17.3	10.1	3.61	13.8	13.1	7.48	11.4	9.3	3.65	0.15	viability, T/C (second compound 0.1 µM, first compound 0.000316 µM): 92.6%; viability, T/C (second compound 0.1 µM, first compound 0.001 µM): 16.3%; viability, T/C (second compound 0.316 µM, first compound 0.000316 µM): 89.3%; viability, T/C (second compound 0.316 µM, first compound 0.001 µM): 9.55%; viability, T/C (second compound 1 µM, first compound 0.000316 µM): 82%; viability, T/C (second compound 1 µM, first compound 0.001 µM): 16.4%; viability, T/C (second compound 3.16 µM, first compound 0.000316 µM): 70%; viability, T/C (second compound 3.16 µM, first compound 0.001 µM): 0.39%; viability, T/C [27]: 10.3%; viability, T/C (second compound 10 µM, first compound 0.000316 µM): 74%; viability, T/C (second compound 10 µM, first compound 0.001 µM): 9.39%; viability, T/C [30]: 7.81%; viability, T/C [31]: 7.31%; viability, T/C [32]: 3.77%; viability, T/C [33]: 12.5%
COc1cc(Nc2ncc3c(n2)-c2ccc(Cl)cc2C(c2c(F)cccc2OC)=NC3)ccc1C(=O)O + NC1CCC(NC2CC2c2ccccc2)CC1	0.0333	0.0181	0.0347	0.02	0.0172	67.7	59.1	51.7	39.5	64.9	52.9	45.6	37.6	62.3	57.5	51.8	40	62.9	52.1	47.2	viability, T/C [10]: 31.7%; viability, T/C [11]: 25.7%; viability, T/C [16]: 35%; viability, T/C [17]: 23.7%; viability, T/C [22]: 32.3%; viability, T/C [23]: 19.9%; viability, T/C [27]: 41.2%; viability, T/C [28]: 28.6%; viability, T/C [29]: 22.1%; viability, T/C [30]: 60.9%; viability, T/C [31]: 52.7%; viability, T/C [32]: 50.3%; viability, T/C [33]: 33.2%; viability, T/C [34]: 31.5%; viability, T/C [35]: 22.5%
CC(C)CC(NC(=O)C(Cc1ccccc1)NC(=O)c1cnccn1)B(O)O (configuration not stated)																					viability, T/C (compound 0.000316 µM): 84% and 74.3%; viability, T/C (compound 0.001 µM): 15.6% and 0.43%; viability, T/C (compound 0.00316 µM): 8.34% and 0.27%; viability, T/C (compound 0.01 µM): 17.3% and 0.26%; viability, T/C (compound 0.0316 µM): 7.7% and 0.24%; viability, T/C (compound 0.1 µM): 13.9% and 0.31%; IC50 (curve of compound): 0.00056 µM and 0.000462 µM

Source: PubChem BioAssay AID1918957 (Molecular Pharmacology Branch, DTP, NCI, 2023)
